Tests used:
STAT5b = system: STAT5b; parameters: method as in literature; details: training set for retrospective virtual screening with 6MBW; known actives for STAT5b found in the literature; ref literature; cited from earlier work
[1] = target: T1, STAT5b N-terminal domain (NTD) (Homo sapiens, UniProt P51692); test: Isothermal titration calorimetry (ITC), STAT5b-NTD; type: binding; parameters: key to identified as active in ITC: A compound was identified as active, if it had a mean Kd value under 100 μM; details: for Kd: ITC, 25 °C, 1X PBS pH 7.4, 8% DMSO, single-site fit
T1 sequence (P51692 1-126 limits assumed): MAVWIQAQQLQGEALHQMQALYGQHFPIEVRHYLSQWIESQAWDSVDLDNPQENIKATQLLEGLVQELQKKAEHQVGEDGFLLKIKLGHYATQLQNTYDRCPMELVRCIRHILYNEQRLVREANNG
Method: The detailed protocol for the expression and purification of the STAT5b-NTD was described in our recent work. ITC measurements were carried out on a MicroCal PEAQ-ITC microcalorimeter (Malvern Instruments, Worcestershire, UK). All protein and ligand solutions were composed of 1X PBS (pH 7.4) buffer containing 8% (V/V) DMSO to avoid buffer mismatch. Protein solutions containing 25-26 μM protein were prepared in batches prior to measurements by diluting 676 μM stock solution (stored in 1X PBS (pH 7.4) buffer at -80 °C) warmed to room temperature with 1X PBS (pH 7.4) buffer solution and an appropriate amount of DMSO. Ligand solutions were prepared by first dissolving the ligands in DMSO to acquire a 50 mM stock solution, which was then diluted to 1 mM (in the case of […]_M2 ligand) or 4 mM (all other ligands) concentration using 1X PBS (pH 7.4) buffer solution. Appropriate amounts of DMSO were also added to the solution containing 1 mM ligand to yield a 8% (V/V) DMSO content. The protein solution was loaded into the sample cell in a volume of 200 μL and was titrated at 25 °C with the ligand solution at a stirring speed of 1000 rpm and a reference heat rate of 10 μcal/s in a high feedback mode. Used initial delay was 120 s, and the injection program was composed of an initial first injection with 0.5 μL over 2 s, followed by 18 injections with 2 μL over 4 s. Injections were performed every 180 s. Blank measurements consisting of titrating the ligand into the buffer (1X PBS (pH 7.4) containing 8% (V/V) DMSO) were carried out to correct for the heat of dilution for all ligands using the appropriate injection program. Data were analyzed using the MicroCal PEAQ-ITC analysis software (version 1.22) by fitting a single-site binding curve. […] Binding curves of the identified active compounds are included in Supporting Information Figures S3-S5.

[2] = target: T2, STAT5b (136–703) SH2 domain (Homo sapiens, UniProt P51692); test: Fluorescence polarization assay (FP-assay), STAT5b SH2 domain; type: binding; parameters: key to identified as active in FP-assay: A compound was identified as active, if it had a mean IC50 value under 100 μM; details: for IC50: FP-assay, mean IC50, at least three biological replicates
T2 sequence (P51692 136-703): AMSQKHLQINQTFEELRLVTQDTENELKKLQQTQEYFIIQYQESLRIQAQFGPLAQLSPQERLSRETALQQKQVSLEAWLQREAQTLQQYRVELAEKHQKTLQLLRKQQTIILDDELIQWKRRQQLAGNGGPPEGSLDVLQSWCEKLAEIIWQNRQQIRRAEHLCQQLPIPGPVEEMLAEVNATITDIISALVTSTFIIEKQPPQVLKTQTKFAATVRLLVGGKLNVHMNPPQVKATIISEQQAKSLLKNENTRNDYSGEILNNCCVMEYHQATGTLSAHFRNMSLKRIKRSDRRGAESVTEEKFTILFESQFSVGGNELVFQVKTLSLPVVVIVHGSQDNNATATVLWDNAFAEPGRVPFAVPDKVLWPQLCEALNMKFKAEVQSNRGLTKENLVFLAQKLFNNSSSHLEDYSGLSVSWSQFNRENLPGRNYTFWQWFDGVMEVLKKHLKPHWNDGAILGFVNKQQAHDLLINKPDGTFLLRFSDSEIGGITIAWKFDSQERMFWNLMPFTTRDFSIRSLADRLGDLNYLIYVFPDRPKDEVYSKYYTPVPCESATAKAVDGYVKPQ
Method: The respective protocols for the expression and purification of the STAT3 SH2 and STAT5b SH2 domains were published in our recent works. Fluorescence polarization assays (FP-assays) were performed on a Molecular Devices SpectraMax iD5Multimode Microplate Reader (San Jose, CA, USA) using Greiner black 384-well flat-bottom nonbinding microplates with 40 μL final well volumes. The fluorescent peptides (5-FAM-G(pTyr)-LPQTV-NH2 and 5-FAM-G(pTyr)-LVLDKW-NH2, purchased from GenScript Biotech Ltd., Piscataway, NJ, USA), as well as the proteins, were diluted with a buffer containing 50 mM NaCl, 10 mM HEPES (4-(2-hydroxyethyl)-1-piperazineethanesulfonic acid), 1 mM EDTA (ethylenediaminetetraacetic acid), 2 mM DTT (dithiothreitol), and 0.1% Triton X-100, pH 7.5. For STAT3 (127–770), the final concentration of the protein was 200 nM, and the fluorescent peptide (5-FAM-G(pTyr)-LPQTV-NH2) was added at a final concentration of 5 nM; for STAT5b (136–703), the final concentration of the protein was 500 nM, and the fluorescent peptide (5-FAM-G(pTyr)-LVLDKW-NH2) was added at a final concentration of 10 nM. The wells were treated with varying concentrations of inhibitors (1250 to 0.11 μM final concentrations). The final DMSO content was 2.5%. After mixing, the protein and inhibitors were incubated at room temperature for 30 min, then the fluorescent peptide was added, and the plate was incubated for another 20 min prior to the fluorescence readout (extinction wavelength: 475 nm, emission wavelength: 520 nm). The measurements were carried out in at least three biological replicates. Fluorescence polarization was calculated from the perpendicular and parallel fluorescence intensities and then plotted against concentration. The IC50 values were determined after fitting quadratic dose–response curves on the data points in GraphPad Prism 8.0.1. […] All plotted curves and data points for the hit compounds are included in Section 2 of the Supporting Information.

| Structure (SMILES) | Type (Active / decoy) (STAT5b) | Kd [1] | IC50 [2] | further results |
| --- | --- | --- | --- | --- |
| CC(C)(C)c1cc(CN(C(=O)CN(Cc2ccc(Cl)cc2)S(=O)(=O)c2c(F)c(F)c(F)c(F)c2F)c2ccc(C(=O)O)c(O)c2)cc(C(C)(C)C)c1 [13a, CC(C)(C)c1cc(CN(C(=O)CN(Cc2ccc(Cl)cc2)S(=O)(=O)c2c(F)c(F)c(F)c(F)c2F)c2ccc(C(=O)O)c(O)c2)cc(C(C)(C)C)c1] | Active |  |  |  |
| CC(C)(C)c1cc(CN(C(=O)CN(Cc2ccc(Cl)cc2)S(=O)(=O)c2c(F)c(F)c(F)c(F)c2F)c2ccc(C(=O)O)cc2)cc(C(C)(C)C)c1 [AC-4-130, CC(C)(C)c1cc(CN(C(=O)CN(Cc2ccc(Cl)cc2)S(=O)(=O)c2c(F)c(F)c(F)c(F)c2F)c2ccc(C(=O)O)cc2)cc(C(C)(C)C)c1] | Active |  |  |  |
| COC(=O)c1cccc(-c2ccc(-c3ccc(CN(C(=O)CN(C)S(=O)(=O)c4ccc(C)cc4)c4ccc(C(=O)O)c(O)c4)cc3)cc2)c1 [BP-1-075, COC(=O)c1cccc(-c2ccc(-c3ccc(CN(C(=O)CN(C)S(=O)(=O)c4ccc(C)cc4)c4ccc(C(=O)O)c(O)c4)cc3)cc2)c1] | Active |  |  |  |
| CN(CC(=O)N(Cc1ccc(C2CCCCC2)cc1)c1ccc(C(=O)O)c(O)c1)S(=O)(=O)c1ccc(-c2ccccc2)cc1 [BP-1-107, CN(CC(=O)N(Cc1ccc(C2CCCCC2)cc1)c1ccc(C(=O)O)c(O)c1)S(=O)(=O)c1ccc(-c2ccccc2)cc1] | Active |  |  |  |
| Cc1cc(C)c(S(=O)(=O)N(C)CC(=O)N(Cc2ccc(C3CCCCC3)cc2)c2ccc(C(=O)O)c(O)c2)c(C)c1 [BP-1-108, Cc1cc(C)c(S(=O)(=O)N(C)CC(=O)N(Cc2ccc(C3CCCCC3)cc2)c2ccc(C(=O)O)c(O)c2)c(C)c1] | Active |  |  |  |
| O=C(NCC[C@@H](O)c1ccc2c(c1)OCO2)C(=O)Nc1ccc(F)c(Cl)c1 [S5N_M1, Clc(c1)c(F)ccc1NC(=O)C(=O)NCC[C@@H](O)c(cc2)cc(c23)OCO3] |  | 484 ± 22.5 µM |  | identified as weakly binding in ITC [1]: weakly binding (weakly binding (mean Kd is higher than 100 μM)) |
| C[C@@](O)(CNC(=O)NCc1cccc2ccccc12)c1ccc2c(c1)OCO2 [S5N_M2, c1cccc(c12)c(ccc2)CNC(=O)NC[C@@](C)(O)c(cc3)cc(c34)OCO4] |  | 34.9 ± 4.29 µM |  | identified as active in ITC [1]: active |
| O=C(NC[C@@]1(O)CCCNC1)Nc1cc(Cl)ccc1Cl [S5N_M4, Clc(c1)ccc(Cl)c1NC(=O)NC[C@@]2(O)CCC[NH]C2] |  | 81.3 ± 12.7 µM |  | identified as active in ITC [1]: active |
| CC(=O)N1CC[C@@H](NC(=O)c2cc3ccccc3cc2O)[C@H](O)C1 [S5N_M6, c1cccc(c12)cc(c(O)c2)C(=O)N[C@@H]3CCN(C(=O)C)C[C@H]3O] |  | 57.3 ± 11.9 µM |  | identified as active in ITC [1]: active |
| N[C@H]1C[C@@H](c2cc(N[C@H](CO)Cc3ccccc3)ncn2)C1 [S5N_M7, C1[C@H]([NH2])C[C@@H]1c(c2)ncnc2N[C@H](CO)Cc3ccccc3] |  | 268 ± 37.8 µM |  | identified as weakly binding in ITC [1]: weakly binding (weakly binding (mean Kd is higher than 100 μM)) |
| Cc1c(CC(=O)N[C@H](CCCCNC(N)=O)C(=O)O)c(=O)oc2cc(O)ccc12 [S5_M6, c1cc(O)cc(c12)oc(=O)c(c2C)CC(=O)N[C@@H](C([OH])=O)CCCCNC(=O)N] |  |  | 378 ± 108 µM | identified as weakly binding in FP-assay [2]: weakly binding (A weakly binding compound (mean IC50 value higher than 100 μM)) |
| O=C(O)[C@@H](O)[C@@H](O)c1nc2ccccc2[nH]1 [S5_M7, [OH]C(=O)[C@@H](O)[C@@H](O)c([nH]1)nc(c12)cccc2] |  |  | 16.2 ± 8.2 µM | identified as active in FP-assay [2]: active |
| Nc1nc(NCCc2cn3ccsc3n2)cc([C@H]2C[C@H](O)C2)n1 [S5_M8, s1ccn(c12)cc(n2)CCNc3cc(nc(n3)N)[C@@H]4C[C@H](C4)O] |  |  | 41.2 ± 10.5 µM | identified as active in FP-assay [2]: active |
| O=C(CCc1nc2ccccc2[nH]1)NCc1cc(-c2ccccc2)[nH]n1 [S5_M9, c1cccc(c12)[nH]c(n2)CCC(=O)NCc3n[nH]c(c3)-c4ccccc4] |  |  | 42.6 ± 20.2 µM | identified as active in FP-assay [2]: active |
| O=C(NCCc1cnccn1)[C@H]1CCCN(C2CCN(Cc3ccncc3)CC2)C1 [S5_M13, c1cnccc1CN(CC2)CCC2[N@@]3CCC[C@@H](C3)C(=O)NCCc4cnccn4] |  |  |  | identified as active in FP-assay [2]: active |
| Cn1c(CN2CCC(O)CC2)nnc1[C@H]1CCCN(Cc2ncc[nH]2)C1 [S5_M14, C1CC(O)CCN1Cc(n2C)nnc2[C@H]3CCCN(C3)Cc4[nH]cc[n]4] |  |  | 13.8 ± 14.9 µM |  |
